From patent US8067424B2, “Selective inhibitors for cyclin-dependent kinases” (Emory University, priority 2007, dated 2011)
Like-named read-outs stand apart in the source and are kept apart here.

Assays:
[1] = molecular target: T1, CDK2/cyclin A complex (Homo sapiens, UniProt P24941); assay: CDK2/cyclin A kinase assay (as for CDK7); format: biochemical; conditions: for remaining activity at 0.1 µM: 100 nM, mean of three (standard deviation), read-out: CDK2 % remaining kinase activity after incubation with 100 nM of compound; for IC50: Table 7, mean of three experiments, read-out: CDK2 kinase inhibition in vitro (IC50)
T1 construct: purchased Proqinase GmbH, Germany
Outline: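 Run as the CDK7 protocol with 50 ng CDK2/cyclin A or 100 ng CDK9/cyclin T; compound 30 min at 30 °C, then 2 μM ATP final for 20 min at 30 °C. ATP depletion by luciferase luminescence (PKLight), triplicate, normalised to no-enzyme and enzyme controls.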

[2] = molecular target: CDK 5 (Homo sapiens, UniProt Q00535); assay: CDK5 in vitro kinase inhibition (protocol similar to Example 14); format: biochemical; conditions: for remaining activity at 0.1 µM: 100 nM, mean of three (standard deviation), read-out: CDK5 % remaining kinase activity after incubation with 100 nM of compound; for IC50: Table 7, mean of three experiments
Chain of CDK 5 (Q00535 whole entry): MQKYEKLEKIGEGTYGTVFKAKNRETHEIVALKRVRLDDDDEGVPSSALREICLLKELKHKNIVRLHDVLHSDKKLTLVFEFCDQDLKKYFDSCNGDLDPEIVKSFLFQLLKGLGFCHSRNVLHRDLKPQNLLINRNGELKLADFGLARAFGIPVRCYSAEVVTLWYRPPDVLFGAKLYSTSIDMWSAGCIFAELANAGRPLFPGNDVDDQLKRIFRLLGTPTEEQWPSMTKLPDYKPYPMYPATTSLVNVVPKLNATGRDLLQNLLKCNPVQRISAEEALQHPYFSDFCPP
Chain of CDK 5 (Q15078 whole entry partner): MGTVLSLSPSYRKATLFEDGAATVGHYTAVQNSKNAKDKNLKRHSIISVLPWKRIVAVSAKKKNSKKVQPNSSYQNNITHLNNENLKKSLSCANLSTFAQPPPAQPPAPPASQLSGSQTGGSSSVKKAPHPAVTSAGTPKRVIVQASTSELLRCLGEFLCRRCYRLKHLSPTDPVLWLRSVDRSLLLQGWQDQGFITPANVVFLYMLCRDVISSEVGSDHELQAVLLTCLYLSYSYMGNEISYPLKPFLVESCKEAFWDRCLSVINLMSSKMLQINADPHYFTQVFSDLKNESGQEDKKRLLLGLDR

[3] = molecular target: T2, CDK7 complex (CDK7, Cyclin H, MAT1) (Homo sapiens, UniProt P50613); assay: CDK7/CycH/MAT1 trimeric complex kinase assay (PKLight luciferase); format: biochemical; conditions: 100 nM; mean of three (standard deviation); read-out: CDK7 % remaining kinase activity after incubation with 100 nM of compound
T2 construct: purchased Proqinase GmbH, Germany
T2 sequence (P50613 whole entry): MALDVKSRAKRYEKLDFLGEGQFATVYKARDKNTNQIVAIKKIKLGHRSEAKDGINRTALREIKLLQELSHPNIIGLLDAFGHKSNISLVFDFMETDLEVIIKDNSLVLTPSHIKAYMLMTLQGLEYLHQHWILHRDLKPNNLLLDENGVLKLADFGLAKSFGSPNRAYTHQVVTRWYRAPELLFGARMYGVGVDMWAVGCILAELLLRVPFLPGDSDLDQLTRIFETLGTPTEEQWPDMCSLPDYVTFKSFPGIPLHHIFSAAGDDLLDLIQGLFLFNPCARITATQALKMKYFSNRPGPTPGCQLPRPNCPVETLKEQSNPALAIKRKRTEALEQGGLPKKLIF
T2 sequence (P51946 whole entry partner): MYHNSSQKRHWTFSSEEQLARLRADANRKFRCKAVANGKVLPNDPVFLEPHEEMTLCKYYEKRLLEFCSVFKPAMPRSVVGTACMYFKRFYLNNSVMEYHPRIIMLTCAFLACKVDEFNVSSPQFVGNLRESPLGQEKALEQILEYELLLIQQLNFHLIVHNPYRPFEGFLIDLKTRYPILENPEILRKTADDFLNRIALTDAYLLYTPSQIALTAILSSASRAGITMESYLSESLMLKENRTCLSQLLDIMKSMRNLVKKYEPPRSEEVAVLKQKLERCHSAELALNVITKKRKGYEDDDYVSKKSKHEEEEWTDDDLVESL
T2 sequence (P51948 whole entry partner): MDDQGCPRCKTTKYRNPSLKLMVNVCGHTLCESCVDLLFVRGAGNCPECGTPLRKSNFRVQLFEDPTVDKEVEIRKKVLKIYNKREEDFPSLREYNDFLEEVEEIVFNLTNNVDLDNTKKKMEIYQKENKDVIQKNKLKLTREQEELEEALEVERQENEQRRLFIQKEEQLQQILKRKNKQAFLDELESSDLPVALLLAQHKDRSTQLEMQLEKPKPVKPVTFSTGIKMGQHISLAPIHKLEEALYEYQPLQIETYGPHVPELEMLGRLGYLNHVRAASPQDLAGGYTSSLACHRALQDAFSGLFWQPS
Outline: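 Compound was preincubated with the kinase for 30 min at 30 °C; the reaction then ran for 20 min at 30 °C with 2 μM ATP final. Remaining ATP was measured by PKLight luciferase luminescence at 560 nm. Values were corrected against the no-enzyme control and expressed relative to enzyme-only activity (100%), in triplicate.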

[4] = molecular target: ERK1 (Homo sapiens, UniProt P27361); assay: Kinase screen: ERK1 assay; format: biochemical
Chain of ERK1 (P27361 whole entry, species assumed): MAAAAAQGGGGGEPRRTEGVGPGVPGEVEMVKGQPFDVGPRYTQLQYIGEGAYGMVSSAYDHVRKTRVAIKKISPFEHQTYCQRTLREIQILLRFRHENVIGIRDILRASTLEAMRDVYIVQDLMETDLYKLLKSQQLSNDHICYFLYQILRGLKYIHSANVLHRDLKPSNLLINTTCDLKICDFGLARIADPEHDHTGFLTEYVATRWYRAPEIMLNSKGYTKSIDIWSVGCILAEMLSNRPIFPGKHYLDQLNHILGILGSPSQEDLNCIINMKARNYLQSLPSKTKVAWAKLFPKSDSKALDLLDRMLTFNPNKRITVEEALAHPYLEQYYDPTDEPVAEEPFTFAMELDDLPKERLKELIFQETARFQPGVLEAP
Procedure: (§1) Generally, the same procedure was used for all assays. Since the total assay volume was 25.5 microliters, 0.5 microliters of inhibitors at 51× assay concentration were added to the plates before any other addition.
(§2) The basic procedure was to add 0.5 microliters inhibitor/control in DMSO to plate. Fifteen microliters of enzyme/substrate/buffer mix were added and incubated for 5 min. Ten microliters MgATP at the relevant concentration were added and incubated for 30 min. The assay was stopped by adding 5 microliters of 3% orthophosphoric acid. The assay was transferred to a p81 filter plate and read in a scintillation counter of 30 sec/well. Note that this assay procedure was not followed for MKK1, which instead involved a two-step assay, and PKC alpha, which required the addition of lipid vesicles.
ERK1 assay: 5-20 mU of ERK1 (diluted in 50 mM Tris (pH 7.5), 0.1 mM EGTA, 1 mg/ml BSA, 0.1%, b-Mercaptoethanol) was assayed against MBP in a final volume of 25.5 μl containing 50 mM Tris (pH 7.5), 0.1 mM EGTA, 0.1%, b-Mercaptoethanol, 0.33 mg/ml MBP, 10 mM magnesium acetate and 0.005 mM [33P-g-ATP] (500-1000 cpm/pmole) and incubated for 30 mins at room temperature. Assays were stopped by addition of 5 μl of 0.5M (3%) orthophosphoric acid. Assays were harvested onto P81 Unifilter plates using a wash buffer of 50 mM orthophosphoric acid.

[5] = system: NCI-H226
[6] = system: HT29
[7] = molecular target: AURORA C (Homo sapiens, UniProt Q9UQB9); assay: Kinase screen: Aurora C assay; format: biochemical; conditions: read-out: Mean Remaining Enzyme Activity (%)
Chain of AURORA C (Q9UQB9 whole entry): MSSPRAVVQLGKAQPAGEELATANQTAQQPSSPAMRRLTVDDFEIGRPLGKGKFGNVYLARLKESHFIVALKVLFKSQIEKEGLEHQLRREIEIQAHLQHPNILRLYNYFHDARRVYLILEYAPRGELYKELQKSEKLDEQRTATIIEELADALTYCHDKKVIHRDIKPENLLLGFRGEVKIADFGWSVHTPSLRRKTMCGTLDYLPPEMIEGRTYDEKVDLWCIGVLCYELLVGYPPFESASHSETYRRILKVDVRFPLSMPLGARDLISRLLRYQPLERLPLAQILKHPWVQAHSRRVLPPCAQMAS
Procedure: as §1, §2
Aurora C assay: Aurora C (5-20 mU diluted in 50 mM Tris pH 7.5, 0.1 mM EGTA, 0.1% b-mercaptoethanol, 1 mg/ml BSA) was assayed against a substrate peptide ([…]) (SEQ ID NO: 26) in a final volume of 25.5 μl containing 50 mM Tris pH 7.5, 0.05% b-mercaptoethanol, 300 μM substrate peptide, 10 mM magnesium acetate and 0.005 mM [33P-g-ATP] (50-1000 cpm/pmole) and incubated for 30 min at room temperature. Assays were stopped by addition of 5 μl of 0.5 M (3%) orthophosphoric acid and then harvested onto P81 Unifilter plates with a wash buffer of 50 mM orthophosphoric acid.

[8] = 10 micromolar compound, read-out: mean activity remaining (as a percentage of the original activity), ERK1
[9] = NCI-H226, log10 concentration −4.0
[10] = NCI-H226, log10 concentration −5.0
[11] = NCI-H226, log10 concentration −6.0
[12] = NCI-H226, log10 concentration −7.0
[13] = NCI-H226, log10 concentration −8.0

SMILES: CC[C@H](CO)Nc1cc(NCc2ccccc2)n2ncc(C(C)C)c2n1 [ICEC0067]
- remaining activity at 0.1 µM [1]: 100%
- IC50 [1]: > 1000 nM
- remaining activity at 0.1 µM [2]: 84%
- remaining activity at 0.1 µM [3]: 49%
- remaining activity at 10 µM [4, 8]: 69%

SMILES: C=C[C@H](CO)Nc1cc(NCc2ccccc2)n2ncc(C(C)C)c2n1 [ICEC0065]
- remaining activity at 0.1 µM [1]: 95%
- IC50 [1]: > 1000 nM
- remaining activity at 0.1 µM [2]: 83%
- IC50 [2]: > 1000 nM
- remaining activity at 0.1 µM [3]: 80%
- remaining activity at 10 µM [4, 8]: 84%

SMILES: CC(C)c1cnn2c(NCc3ccccc3)cc(N[C@@H](CO)[C@H](O)CO)nc12 [ICEC0318, (3S)-3-(7-(Benzylamino)-3-isopropylpyrazolo[1,5-a]pyrimidin-5-ylamino)butane-1,2,4-triol]
- Mean Optical Densities [5, 9]: 0.725
- Percent Growth [5, 9]: 4%
- Mean Optical Densities [5, 10]: 0.613
- Percent Growth [5, 10]: −9%
- Mean Optical Densities [5, 11]: 0.662
- Percent Growth [5, 11]: −1%
- Mean Optical Densities [5, 12]: 1.920
- Percent Growth [5, 12]: 89%
- Mean Optical Densities [5, 13]: 2.076
- Percent Growth [5, 13]: 101%
- TGI ([6]; HT29 (Colon Cancer)): 3.66E−5
- Mean Optical Densities ([6]; HT29, log10 concentration −4.0): 0.190
- Percent Growth ([6]; HT29, log10 concentration −4.0): −2%
- Mean Optical Densities ([6]; HT29, log10 concentration −5.0): 0.216
- Percent Growth ([6]; HT29, log10 concentration −5.0): 2%
- Mean Optical Densities ([6]; HT29, log10 concentration −6.0): 0.247
- Percent Growth ([6]; HT29, log10 concentration −6.0): 5%
- Mean Optical Densities ([6]; HT29, log10 concentration −7.0): 1.345
- Percent Growth ([6]; HT29, log10 concentration −7.0): 100%
- Mean Optical Densities ([6]; HT29, log10 concentration −8.0): 1.394
- Percent Growth ([6]; HT29, log10 concentration −8.0): 105%
- remaining activity at 0.1 µM [2]: 14%
- IC50 [2]: 30 nM
- remaining activity at 10 µM [4, 8]: 42%

SMILES: CC(C)c1cnn2c(NCc3ccccc3F)cc(NCCCCCN)nc12 [ICEC-0232]
- mean activity remaining (as a percentage of the original activity), ERK1 ([4]; 10 micromolar compound): 90%

SMILES: CC(C)c1cnn2c(NCc3ccccc3)cc(NCCCCCCCN)nc12 [BS-181]
- remaining activity at 10 µM [7]: 98%
- remaining activity at 10 µM ([4]; ERK1, 10 μM, read-out: Mean Remaining Enzyme Activity (%)): 108%
